According to patent US11561227B2, “Anti-mitochondrial inhibitors for oncogenic Ras and Myc” (LUNELLA BIOTECH, INC., priority 2017, dated 2023):

Tested on: MCF7 cells
Assay: Mammosphere formation in MCF7 cells (rotenone-induced oxidative stress)
Type: cell-based, human
Procedure: Investigation of the mechanism of tumorigenesis may be conducted by transduction of MCF7 cells with c-Myc, H-Ras, or both, and then subjecting the cell lines to phenotypic characterization, such as mammosphere formation. For the mammosphere formation assay inventors employed, a single suspension of MCF7 cells was prepared using enzymatic (lx Trypsin-EDTA, Sigma Aldrich) and manual disaggregation with a 25-gauge needle. Cells were plated at a density of 500 cells/cm^2 in a mammosphere medium (DMEM-F12/B27/20-ng/mlEGF/PenStrep) in non-adherent conditions, in culture dishes coated with 2-hydroxyethylmethacrylate (poly-HEMA, Sigma). Cells were grown for 5 days and maintained in a humidified incubator at 37° C. at an atmospheric pressure in 5% (v/v) carbon dioxide/air. After 5 days in culture, spheres >50 μm were counted using an eye-piece graticule, and the percentage of cells plated which formed spheres was calculated and is referred to as percent mammosphere formation, normalized to vehicle-alone treated controls. Mammosphere assays were performed in triplicate and repeated three times independently.
The inventors hypothesized that c-Myc induces “stemness” of CSCs in part by driving and managing the onset of mitochondrial oxidative stress. To test this hypothesis, inventors used a pharmacological approach to stimulate oxidative stress. Rotenone is a naturally occurring isoflavone that behaves as an inhibitor of complex I and strongly induces mitochondrial oxidative stress. During rotenone treatment, mitochondrial complexes I and III are the major sites of electron leakage, resulting in increased superoxide production. The inventors treated MCF7 cells with increasing concentrations of Rotenone.
To further validate that the effects of low-dose Rotenone were due to oxidative stress, the inventors tested the effects of a mitochondrial-specific antioxidant Mito-tempo. Mito-tempo functions as a reactive oxygen species (ROS) scavenger by targeting superoxide anions generated in mitochondria.

| SMILES | effect on rotenone-stimulated mammosphere formation (MCF7 mammospheres pretreated with rotenone, FIG. 6) | effect on mammosphere formation (higher dose Rotenone, MCF7 cells, FIG. 5) | stimulation of mammosphere formation (low-dose Rotenone, MCF7 cells, FIG. 5) [fold] |
| --- | --- | --- | --- |
| CC1(C)CC(NC(=O)C[P+](c2ccccc2)(c2ccccc2)c2ccccc2)CC(C)(C)N1[O] [Mito-tempo] | inhibited the stimulatory effects of rotenone | – | – |
| C=C(C)[C@H]1Cc2c(ccc3c2O[C@@H]2COc4cc(OC)c(OC)cc4[C@@H]2C3=O)O1 [Rotenone] | – | inhibited mammosphere formation | 1.6 to 1.8 |
